Reference: patent US11744907B2, “Predicting peptide receptor radiotherapy using a gene expression assay” (Liquid Biopsy Research LLC, priority 2017, dated 2023)

Tests used:
[1] = system: neuroendocrine tumor (NET); experiment: Progression-free survival of PPQ-negative subjects after PRRT or PRRT plus chemotherapy; type: in vivo, human; conditions: PPQ predicted non responders; standard 4 cycle PRRT
Description: Clinical outcomes of patients that were identified by the PPQ to be a predicted non-responder to PRRT therapy were further analyzed. […] Thus, the PPQ can be used to identify patients that require additional agents (e.g. immune-related treatments or chemotherapy) to be used with PRRT and thereby optimize outcomes.

midgut NETs = midgut NETs progressive on standard octreotide LAR treatment; cited from earlier work

For `C[C@@H](O)[C@H](NC(=O)[C@@H]1CSSC[C@H](NC(=O)[C@@H](Cc2ccccc2)NC(=O)CN2CCN(CC(=O)[O-])CCN(CC(=O)[O-])CCN(CC(=O)[O-])CC2)C(=O)N[C@@H](Cc2ccc(O)cc2)C(=O)N[C@H](Cc2c[nH]c3ccccc23)C(=O)N[C@@H](CCCCN)C(=O)N[C@@H]([C@@H](C)O)C(=O)N1)C(=O)O.[177Lu+3]` [Lutathera, ^177Lu-DOTA-Tyr^3-Thr^8-octreotide], the “median PFS” value [1] is given as 9 months and the “efficacy versus high-dose octreotide” value (midgut NETs) is given as “more effective than high-dose octreotide somatostatin analogs”.
